# Data: publication PMC12144419, “Early preclinical development of Mycobacteriumtuberculosis amino acid biosynthesis pathway inhibitor DRILS-1398 as a potential anti-TB drug” (iScience, 2025)
# Where “and” joins values, the source holds several entries; their conditions need not be identical. Identical values can stand only once. Entries after “also recorded” stand apart in the source; their conditions may differ. Like-named read-outs stand apart in the source and are kept apart here.
# What was measured:
# M.tb-CM = test system: M.tb-CM; design: method as in doi:10.1039/C1MD00148E; settings: read-out: IC50, inhibition of M.tb-CM; cited from earlier work
# [1] = test system: intracellular MDR-M.tb H37Rv (ATCC 35825) in activated THP-1 macrophages; assay: Intracellular efficacy THP-1 macrophage assay, MDR-M.tb ATCC 35825; type: cell-based, Mycobacterium tuberculosis; settings: for cfu reduction vs day 7 control, combination study: Fig 4E, DRILS-1398 15 μM, rifampicin 19.45 μM, alone or combined
# [2] = test system: intracellular M.tb H37Rv (ATCC 27294) in activated THP-1 macrophages; assay: Intracellular efficacy THP-1 macrophage assay, M.tb H37Rv ATCC 27294; settings: for cfu reduction vs day 3 control, combination study / cfu reduction vs day 7 control, combination study: Fig 4D, DRILS-1398 15 μM, rifampicin 19.45 μM, alone or combined
# Experimental: The THP-1 cells were activated with PMA (phorbol 12-myristate-13-acetate) for differentiation into macrophages. After 72 hr of activation, the THP-1 macrophages were infected with M.tb H37Rv strain (ATCC-27294 and ATCC-35825) at a multiplicity of infection (MOI) of 1:10.[34]^,[35] The macrophage infection was allowed for 2 hrs at 37°C with 5% CO2. The media containing M.tb was discarded, and macrophage monolayers were washed twice with phosphate-buffered saline to remove the extracellular bacteria and replenished with fresh, complete RPMI. The M.tb-infected macrophages were exposed to compounds by transferring 200 μL of fresh media containing the respective concentrations of the compounds. Duplicate wells were lysed (0.05% SDS) at specific time points and enumerated to estimate the numbers of intracellular M.tb 2 hr post-infection. The 0.1 mL of lysate was serially diluted and plated onto Middle brook 7H11 agar plates for enumeration (read after 3 to 4 weeks) of live M.tb after compound treatment. After 3 and 7 day exposure to the compounds, the cells were treated the same way, and the live M.tb was enumerated. The efficacy of the test compound was assessed by comparing the M.tb counts from the respective days to day 0 and day 7.
# [3] = target: M.tb chorismate mutase (M.tb-CM) (Mycobacterium tuberculosis, UniProt P9WIB9); assay: CM assay (in vitro substrate competition enzymatic assay, chorismate to prephenate, OD 274 nm); type: biochemical
# Sequence of M.tb chorismate mutase (M.tb-CM) (P9WIB9 34-199): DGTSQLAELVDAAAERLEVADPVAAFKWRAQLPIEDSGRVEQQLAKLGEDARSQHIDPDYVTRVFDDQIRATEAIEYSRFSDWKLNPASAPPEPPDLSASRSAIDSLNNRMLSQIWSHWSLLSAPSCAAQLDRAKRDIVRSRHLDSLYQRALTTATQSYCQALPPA
# Experimental: The activity of the CM enzyme was based on direct observation of the conversion of chorismate to prephenate at OD 274 nm.[32] The reaction volume of the assay was maintained at 100 μl. 1mM of the substrate, chorismic acid (Sigma) was pre-incubated at 37°C for 5 min in the buffer (containing 50mM Tris-HCl (pH 7.5), 0.5mM EDTA, 0.1 mg/mL bovine serum albumin, and 10 mM β-Mercaptoethanol). The reaction was started by adding 180 pmol of CM enzyme to the prewarmed chorismic acid solution. Inhibitory screening of the compounds against CM activity was measured at 100 nM to 50 μM concentration of the effectors. The reaction was allowed to proceed at 37°C and was terminated after 5 min with 100 μl of 1 N HCl. Disappearance of substrate was measured at 274 nm. A blank with no enzyme for every reaction was kept as a control to account for the non-enzymatic conversion of chorismate to prephenate.
# M.tb H37Rv cells = assay: In vitro amino acid supplementation (rescue) growth experiment; type: cell-based, Mycobacterium tuberculosis; settings: amino acid 100 μg/mL
# MDR-M.tb ATCC 35825 = assay: Broth dilution MIC by turbidometry; type: cell-based; settings: Mycobacterium tuberculosis, ATCC35825
# M.tb. ATCC-27294 strain = assay: MIC against M.tb ATCC-27294; type: cell-based; settings: Mycobacterium tuberculosis, ATCC27294
# in vitro = in vitro ADME; settings: mouse, plasma
# Experimental: DRILS-1398 (5μM) was added to both sides of the membrane in an equilibrium dialysis system. Species-specific plasma (50% or 100%) was added to one side, and the system was allowed to reach equilibrium at 37 °C. LC-MS/MS measurements of compound concentration were performed on both sides of the membrane and the fraction of unbound compound was presented.[52]
# [4] = Single-dose oral pharmacokinetics in male BALB/c mice; settings: mouse, in vivo
# Experimental: Male BALB/c mice aged 8-9 weeks were used for experimentation after a minimum of 3 days of acclimatization.[38]^,[39]^,[40] Fasted animals were administered with DRILS-1398 or DRILS-1398 (F) in a recommended vehicle (1%(v/v) Tween 80 + 99% (v/v) of 0.5% (w/v) Carboxymethylcellulose sodium salt in ultrapure water) by oral route with a dose of 50 mg/kg body weight of DRILS-1398 or 10 mg/kg and 30 mg/kg for DRILS-1398(F) at a dose volume of 10 mL/kg b.w. Under mild isoflurane anesthesia, a blood specimen was collected into pre-labeled tubes containing anticoagulant (K2EDTA - 2 mg/mL blood) during the next 24 hours of post-dose (Table-PK study design chart). The collected blood specimens were centrifuged at 6000 rpm, 4°C for 10 min, and plasma was separated and stored at -80°C until analysis. […] Concentrations of analyte DRILS-1398 in mice plasma samples were determined using the Shimadzu LCMS-8045 LC-MS/MS system. The protocols were approved by the Institutional Animal Ethics Committee of the Preclinical Research Department, Anthem Biosciences Pvt. Ltd., Bangalore 560099, India (Study no for 50mg/kg PK study: N20084, (ABD/IASE/PR/185/19-22) and the study no for PK studies for 10mg/kg and 30mg/kg of DRILS-1398(F): ABD-8056 and ABD-7967A (ABD/IAEC/PR/89-17-20) respectively.
# [5] = Single-dose IV pharmacokinetics in male BALB/c mice; type: in vivo; settings: mouse, 10 mg/kg
# Experimental: The intravenous (IV) (10 mg/kg of DRILS-1398) dosing study on BALB/c male mice (n=3 per time point, not more than 2 bleeds per animal, total animals dosed n=12) was carried out on the following time points through saphenous veins; IV: 15 mins, 30 mins, 1, 2, 4, 6, 8 and 24 hr. Collected blood specimens were centrifuged at 6000rpm, 4°C for 10 minutes, and plasma was separated and stored at -80°C until analysis. […] Concentrations of analyte DRILS-1398 in mice plasma samples were determined using the Shimadzu LCMS-8045 LC-MS/MS system. The protocol was approved by the Institutional Animal Ethics Committee of the Preclinical Research Department, Anthem Biosciences Pvt. Ltd., Bangalore 560099, India (protocol number for 10 mg/kg IV PK study: ABD-7967B (ABD/IAEC/PR/89-17-20).
# [6] = Repeated dose 7-day toxicity study; type: in vivo, BALB/c mice
# Experimental: As per the guideline,[58]^,[59] 40 males and 40 females were assigned into four groups of ten animals/sex per group viz., Vehicle control (G1), Low dose (G2), Mid Dose (G3) and High dose (G4). The test item formulations were prepared freshly in Ultra-pure water type 1 as a vehicle. The vehicle alone was administered to the vehicle control (G1) animals. Test item formulations were administered daily once at dose levels of 125 (G2), 250 (G3) and 500 (G4) mg/kg b.w./day. All the animals were administered a dose volume of 10 mL/kg b.w. once daily for 7 consecutive days. All the animals were observed once daily for clinical signs, twice daily for mortality/morbidity, and on day 7 for detailed clinical examination. Body weights and feed consumption were recorded at weekly intervals. At the end of the experimental period (day 8), blood and harvested plasma specimens were analyzed for haematology and clinical chemistry parameters, respectively. Subsequently, the animals were euthanized and subjected to gross pathological examination. The specified organs were collected and preserved in 10% NBF for histopathological evaluation. The protocol was approved by the Institutional Animal Ethics Committee of the Preclinical Research Department, Anthem Biosciences Pvt. Ltd., Bangalore 560099, India. Study no: N23041 (ABD/IAEC/PR/296-23-24).
# [7] = microsomes; for Mouse microsomal stability: 3 µM
# CYP 2C9 = CYP 2C9 (Homo sapiens, UniProt P11712); assay: biochemical
# Sequence of CYP 2C9 (P11712 whole entry): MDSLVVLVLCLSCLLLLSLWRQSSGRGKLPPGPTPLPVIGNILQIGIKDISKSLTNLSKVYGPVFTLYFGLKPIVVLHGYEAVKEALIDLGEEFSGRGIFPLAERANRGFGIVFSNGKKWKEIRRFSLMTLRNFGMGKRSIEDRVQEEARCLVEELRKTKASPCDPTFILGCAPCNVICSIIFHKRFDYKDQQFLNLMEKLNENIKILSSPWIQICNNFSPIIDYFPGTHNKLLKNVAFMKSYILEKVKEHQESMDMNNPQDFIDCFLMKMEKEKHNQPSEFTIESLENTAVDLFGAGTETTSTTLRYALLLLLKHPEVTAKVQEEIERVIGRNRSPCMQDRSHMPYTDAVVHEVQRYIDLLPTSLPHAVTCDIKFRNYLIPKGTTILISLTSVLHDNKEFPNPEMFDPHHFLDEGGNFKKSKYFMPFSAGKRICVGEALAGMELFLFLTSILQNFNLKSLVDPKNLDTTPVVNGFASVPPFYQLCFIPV
# Experimental: (§1) This study performed CYP inhibition assay using Vivid CYP P450 (1A2, 2C9, 2C19, 2D6, and 3A4) blue screening kits.[56] […] The fluorescent reading was taken using a microplate reader at excitation/emission wavelengths of 415/460 nm, respectively. The % of CYP inhibition of test/positive control at each tested concentration was calculated, and the IC50 value against each CYP isoform was plotted using Graph pad prism software.
# CYP 2C19 = CYP 2C19 (Homo sapiens, UniProt P33261); assay: biochemical
# Sequence of CYP 2C19 (P33261 whole entry): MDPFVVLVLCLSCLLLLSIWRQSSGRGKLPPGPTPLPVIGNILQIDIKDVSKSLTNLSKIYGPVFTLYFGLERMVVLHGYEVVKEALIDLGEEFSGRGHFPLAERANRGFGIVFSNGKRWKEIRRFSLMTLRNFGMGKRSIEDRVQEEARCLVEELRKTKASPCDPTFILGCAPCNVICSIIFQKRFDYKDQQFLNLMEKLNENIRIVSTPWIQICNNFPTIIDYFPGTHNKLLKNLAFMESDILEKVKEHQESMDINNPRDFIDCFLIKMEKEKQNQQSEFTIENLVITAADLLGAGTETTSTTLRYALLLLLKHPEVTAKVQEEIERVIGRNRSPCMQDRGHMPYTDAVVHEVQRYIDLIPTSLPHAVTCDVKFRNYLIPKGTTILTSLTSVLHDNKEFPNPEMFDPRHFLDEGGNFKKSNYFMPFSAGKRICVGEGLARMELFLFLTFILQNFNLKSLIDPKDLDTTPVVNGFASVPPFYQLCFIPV
# Experimental: as §1
# CYP 2D6 = CYP 2D6 (Homo sapiens, UniProt P10635); assay: biochemical
# Sequence of CYP 2D6 (P10635 whole entry): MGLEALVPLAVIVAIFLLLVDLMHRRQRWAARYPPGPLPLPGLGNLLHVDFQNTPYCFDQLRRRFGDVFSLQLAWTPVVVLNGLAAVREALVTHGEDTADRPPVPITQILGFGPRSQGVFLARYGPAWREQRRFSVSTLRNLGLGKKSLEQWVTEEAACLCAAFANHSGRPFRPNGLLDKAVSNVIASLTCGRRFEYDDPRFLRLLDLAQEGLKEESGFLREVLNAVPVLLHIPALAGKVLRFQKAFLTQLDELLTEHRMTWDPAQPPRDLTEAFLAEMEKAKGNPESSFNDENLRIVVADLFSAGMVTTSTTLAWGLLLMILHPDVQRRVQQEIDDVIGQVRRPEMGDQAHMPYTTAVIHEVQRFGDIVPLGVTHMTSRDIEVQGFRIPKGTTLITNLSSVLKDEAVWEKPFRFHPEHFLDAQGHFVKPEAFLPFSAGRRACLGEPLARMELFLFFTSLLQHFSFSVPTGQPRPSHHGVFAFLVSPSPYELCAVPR
# Experimental: as §1
# CYP 3A4 = CYP 3A4 (Homo sapiens, UniProt P08684); assay: biochemical
# Sequence of CYP 3A4 (P08684 whole entry): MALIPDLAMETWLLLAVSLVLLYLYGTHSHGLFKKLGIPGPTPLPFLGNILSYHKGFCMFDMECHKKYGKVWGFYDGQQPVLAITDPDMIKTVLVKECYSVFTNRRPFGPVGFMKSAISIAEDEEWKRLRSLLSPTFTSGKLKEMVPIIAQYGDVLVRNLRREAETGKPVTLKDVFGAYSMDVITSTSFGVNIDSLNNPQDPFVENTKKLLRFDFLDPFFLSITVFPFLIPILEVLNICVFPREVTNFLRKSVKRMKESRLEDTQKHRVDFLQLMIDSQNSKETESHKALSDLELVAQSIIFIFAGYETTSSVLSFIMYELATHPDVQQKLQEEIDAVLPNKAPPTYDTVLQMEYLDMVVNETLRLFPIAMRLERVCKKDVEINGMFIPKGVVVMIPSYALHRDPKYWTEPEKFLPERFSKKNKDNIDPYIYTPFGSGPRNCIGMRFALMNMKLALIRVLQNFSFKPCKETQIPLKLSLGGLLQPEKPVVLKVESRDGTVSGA
# Experimental: as §1
# [8] = test system: Salmonella typhimurium TA98, TA100 and TA1537; assay: Bacterial reverse mutation test (Ames); settings: 3000.0, 949.5, 300.0, 94.9 and 30.0 μg/plate, with and without rat liver S9
# CYP 1A2 = CYP 1A2 (Homo sapiens, UniProt P05177); assay: Vivid CYP inhibition, fluorescent substrate method
# Sequence of CYP 1A2 (P05177 whole entry): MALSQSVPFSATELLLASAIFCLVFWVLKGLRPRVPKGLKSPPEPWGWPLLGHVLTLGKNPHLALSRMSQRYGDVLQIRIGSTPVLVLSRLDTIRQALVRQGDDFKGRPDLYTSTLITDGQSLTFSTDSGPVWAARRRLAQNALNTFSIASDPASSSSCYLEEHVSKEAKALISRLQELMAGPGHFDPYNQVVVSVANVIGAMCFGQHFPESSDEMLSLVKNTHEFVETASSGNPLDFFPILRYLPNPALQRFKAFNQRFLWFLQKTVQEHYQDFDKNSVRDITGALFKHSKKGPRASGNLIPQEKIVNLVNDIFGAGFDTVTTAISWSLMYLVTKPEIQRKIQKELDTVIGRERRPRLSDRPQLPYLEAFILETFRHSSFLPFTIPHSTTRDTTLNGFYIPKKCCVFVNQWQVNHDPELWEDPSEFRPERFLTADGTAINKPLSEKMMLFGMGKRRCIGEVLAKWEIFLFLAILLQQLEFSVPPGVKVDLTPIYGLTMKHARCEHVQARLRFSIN
# Experimental: as §1
# M.tb H37Rv [9] = assay: Histopathology (H&E, ZN stain) of lungs of infected mice; settings: for Granuloma in the lung: DRILS-1398 and DRILS-1398(F) 30 mg/kg, isoniazid 5 mg/kg; for Acid-fast bacilli load in lung, ZN staining: vs infected mice without drug
# M.tb H37Rv [10] = assay: In vivo efficacy study, M.tb H37Rv infected mice (CFU in lung and spleen); settings: 10-50 mg/kg on alternate days for four weeks
# [11] = up to 500 mg/kg b.w./day, 7 days
# [12] = Table S4, lung of infected treated mice
structure (smiles),measurement,setting,value
CS(=O)(=O)Nc1ccc(F)cc1-c1cc2cc(F)ccc2n1S(C)(=O)=O [B],IC50,M.tb-CM,~17 µM
"CO[C@H]1/C=C/O[C@@]2(C)Oc3c(C)c(O)c4c(O)c(c(/C=N/N5CCN(C)CC5)c(O)c4c3C2=O)NC(=O)/C(C)=C\C=C\[C@H](C)[C@H](O)[C@@H](C)[C@@H](O)[C@@H](C)[C@H](OC(C)=O)[C@@H]1C [Rifampicin, reference compound]","cfu reduction vs day 7 control, combination study",[1]; day 7,1.96 log10 cfu/mL
same,"cfu reduction vs day 3 control, combination study",[2]; day 3,1.26 log10 cfu/mL
same,"cfu reduction vs day 7 control, combination study",[2]; day 7,2.28 log10 cfu/mL
CCCc1nn(C)c2c(-c3c[nH]c4ccc(Cl)cc34)nc(-c3ccc(Cl)cc3)nc12 [DRILS-1398],IC50,"[3]; IC50, inhibition of M.tb-CM activity, n = 3",3 µM and ~3 µM
same,IC90,"[3]; read-out: IC90, inhibition of M.tb-CM activity",10 µM
same,"Growth of M.tb H37Rv with compound, amino acids added after 24 h","M.tb H37Rv cells; 4 μg/mL compound, until 96 h",showed inhibitory effects up to 24 h
same,Growth of M.tb H37Rv with compound and tyrosine or phenylalanine added at time 0,"M.tb H37Rv cells; ~10 μM compound, 24-96 h",amino acid supplementation rescued the cells from the inhibitory effects
same,MIC,MDR-M.tb ATCC 35825,4 µg/mL and ~10 µM
same,MIC,M.tb. ATCC-27294 strain; M.tb ATCC-27294,6.53 µg/mL
same,MIC,"M.tb. ATCC-27294 strain; M.tb ATCC-27294, converted",~15 µM
same,cfu reduction vs day-3 control,"[1]; Fig 4C, day 3, C1: DRILS-1398 15 μM, rifampicin 13.16 μM",0.40 log10 cfu/mL
same,cfu reduction vs day-7 control,"[1]; Fig 4C, day 7, C1: DRILS-1398 15 μM, rifampicin 13.16 μM",0.70 log10 cfu/mL
same,"cfu reduction vs day 7 control, combination study",[1]; day 7,0.77 log10 cfu/mL
same,fraction unbound at 5 µM,in vitro,~0.0184
same,AUC(0-inf),"[4]; male, BALB/c, po, 50 mg/kg",21400 ng·h/mL
same,AUCextrap,"[4]; male, BALB/c, po, 50 mg/kg",10.30%
same,Cmax,"[4]; male, BALB/c, po, 50 mg/kg",1580 ng/mL
same,MRT last,"[4]; male, BALB/c, po, 50 mg/kg",7.52 h
same,Tmax,"[4]; male, BALB/c, po, 50 mg/kg",4 h
same,AUC(0-t),"[4]; male, BALB/c, oral 50 mg/kg",19200 ng·h/mL
same,half-life,"[4]; male, BALB/c, oral 50 mg/kg",6.95 h
same,Adverse clinical signs during PK treatment,"[4]; po, 50 mg/kg",did not show any adverse clinical signs
same,Approximate free drug concentration in blood plasma,[5]; in vivo,~0.4 µM
same,clearance,[5]; in vivo,35 mL/min/kg
same,half-life,"[5]; plasma, IV 10 mg/kg",~8.25 h
same,"Clinical signs of toxicity, mortality/morbidity","[6]; oral gavage up to 500 mg/kg b.w./day once daily for 7 days, both genders",no adverse clinical signs of toxicity and mortality/morbidity
same,"Effects on body weight, weight gain, feed consumption, hematological and clinical chemistry parameters",[6]; [11],No treatment-related adverse effects
same,Histopathological evaluation of examined tissues,[6]; [11],no treatment-related adverse effects
same,Mouse microsomal stability,[7]; 2 min,56.45%
same,Mouse microsomal stability,[7]; 5 min,53.42%
same,Mouse microsomal stability,[7]; 0.25 h,42.18%
same,Mouse microsomal stability,[7]; 0.75 h,24.61%
same,Mouse microsomal stability,[7]; 2 h,26.57%
same,"Microsomal stability, verdict",[7]; mouse,moderately stable
same,solubility,physchem,≥ 50 mg/mL
same,IC50,CYP 2C9,12.2 µM
same,IC50,CYP 2C19,13.7 µM
same,IC50,CYP 2D6,> 30 µM
same,IC50,CYP 3A4,> 30 µM
same,Mutagenic potential,[8],did not show any mutagenic potential; also recorded: non-mutagenic
same,IC50,CYP 1A2,> 30 µM
same,Granuloma in the lung,M.tb H37Rv [9],no signs of granuloma
same,Granuloma,M.tb H37Rv [9]; [12],-
same,Necrosis of the lung tissue,"M.tb H37Rv [9]; mouse, in vivo",not observed
same,"Acid-fast bacilli load in lung, ZN staining",M.tb H37Rv [9],significant decrease in bacilli load
same,cfu reduction vs day-3 control,"[2]; Fig 4B, day 3, C1: DRILS-1398 15 μM, rifampicin 13.16 μM",0.59 log10 cfu/mL
same,cfu reduction vs day-7 control,"[2]; Fig 4B, day 7, C1: DRILS-1398 15 μM, rifampicin 13.16 μM",1.00 log10 cfu/mL
same,"cfu reduction vs day 3 control, combination study",[2]; day 3,0.42 log10 cfu/mL
same,"cfu reduction vs day 7 control, combination study",[2]; day 7,0.98 log10 cfu/mL
same,Clearance of M.tb H37Rv infection in lungs and spleen (CFU),M.tb H37Rv [10],successful in clearing M.tb infection from the lungs and spleen; also recorded: effectively cleared
"NNC(=O)c1ccncc1 [Isoniazid, reference compound]",Granuloma in the lung,M.tb H37Rv [9],no signs of granuloma
same,Granuloma,M.tb H37Rv [9]; [12],-
same,ZN stain (Acid Fast Bacilli),M.tb H37Rv [9]; [12],+
same,"Acid-fast bacilli load in lung, ZN staining",M.tb H37Rv [9],minimal presence of bacilli
